One series has as its target proteasome β5 (Homo sapiens, UniProt P28074). Kind of series: Inhibition of proteasome β5 (chymotrypsin-like) activity, Suc-LLVY-AMC substrate. The format is biochemical. To be noted: SE in parentheses, n = 2. The procedure: (§1) Reaction time (min) Reaction time (min)
(§2) Figure S1. Proteasome Inhibitors Modified as Degradation Tags, Related to Figures 2
(§3) (A) Chymotrypsin-like (β5) , trypsin-like (β2) and caspase-like (β1) activities of the pr oteasome were monitor ed by Suc- LLVY-
(§4) AMC (β5 substrate) , Bz- VGR-AMC (β2 substr ate) and Z -LLE-AMC (β1 substrate), respectively. AMC fluorescence was
(§5) m onitor ed by a plate reader with excitation and emission filter s of 360 nm and 460 nm, respectively (DMSO, 30 min = 1) […]

Series [1] concerns the target T1, ecDHFR (Escherichia coli, UniProt P0ABQ4).
T1 construct: expressed in transfected cells; host or cells: HeLa cells (bicistronic construct co-expressing DsRed)
Description: Cellular thermal shift assay (CETSA) for ecDHFR in HeLa cells. In kind it is binding. To be noted: ecDHFR-HA-GFP-expressing HeLa cells, 3 h treatment. The method, then:
Figure 2 Proof of principle for the CANDDY Strategy. (A) Structures of degraders 1–3 constructed with TMP and each degradation tag (CANDDY_MLN, CANDDY_ALLN, or CANDDY_BTZ). (B) Comparison of proteasomal inhibitory activity of b2 by 1–3 and each proteasome inhibitor. […] Cell extraction was treated with heat for 3 min and then analyzed via immunoblotting. (D) Degradation rates of ecDHFR by 1–3. The same procedure as in (E) was performed except for 24 h. (E) ecDHFR degradation by 1 for 24 h. The ratio of ecDHFR-HA-GFP/DsRed was detected via flow cytometry.

The target of the next series is proteasome β2 (Homo sapiens, UniProt Q99436). Kind of series: Inhibition of proteasome β2 (trypsin-like) activity, Bz-VGR-AMC substrate. In kind it is biochemical. To be noted: SE in parentheses, n = 2. The method, then:
as §1, §2, §3, §4, §5

Another series addresses proteasome β1 (Homo sapiens, UniProt P28072). Kind of series: Inhibition of proteasome β1 (caspase-like) activity, Z-LLE-AMC substrate. In kind it is biochemical. To be noted: SE in parentheses, n = 2. The method, then:
as §1, §2, §3, §4, §5

Series [2] can be described thus: Solubility (statement in words). In kind it is physicochemical. To be noted: reason not used as in vivo control.
In series [3] the target is T2, KRAS G12D (Homo sapiens, UniProt P01116, G12D). Description: KRAS degradation in a cell-free system with 26S proteasome. The format is biochemical. To be noted: only 26S proteasome and target protein, 3 h at 37 °C. The procedure:
KRAS G12D (final concentration: 5 ng/µL) and 26S proteasome (final concentration: 8 nM) were incubated with TUS-007 (10, 20, 40 µM), RAS-SOS inhibitor (40 µM), RAS-SOS-NH2 (40 µM), or DMSO in 20 mM Tris-HCl buffer (pH 7.5) containing 20% glycerol for 3 h at 37 °C. To assess the effect of MLN on chemical knockdown, KRAS G12D and 26S proteasome were incubated with DMSO or TUS-007 40 µM in the presence or absence of MLN (1 µM) in the same condition. After centrifugation at 14,000× g for 10 min, the supernatants were analyzed via SDS-PAGE, followed by immunoblotting using an anti-KRAS antibody (1:1000, WH0003845MI, Sigma-Aldrich).

Series [4] concerns the target T2, KRAS G12D. Description: KRAS G12D-HA-GFP degradation in HeLa cells. The format is cell-based. Further details: expressed in transfected cells; host or cells: HeLa cells. To be noted: exogenously expressed, flow cytometry and immunoblotting. The procedure: (§6) Figure 3 RAS Chemical Knockdown in vitro. (A) Structures of RAS-SOS inhibitor (4), RAS-SOS-NH2 (5), and TUS-007 as a RAS degrader. (B,C) Assessing the binding affinity of TUS-007 to targets KRAS (G12D, G12V, or wild-type) (B) and proteasome β5 (C) using CETSA. Recombinant KRAS or PSMB5 was treated with vehicle, 4, or TUS-007 for 30 min. The mixture was treated with heat and then analyzed via immunoblotting. […] KRAS-HA-GFP and DsRed-expressing HeLa cells were treated and analyzed via immunoblotting. (F) The same procedure was performed as in (D) (mean ± SEM; n = 3) except for 48 h. (G) Ubiquitination-independent proteasomal KRAS G12D degradation. KRAS G12D-HA-GFP and DsRed-expressing HeLa cells were co-treated with TUS-007 and the NAE inhibitor ([…], […]) or PYR-41 (E1 inhibitor, […]) and then analyzed via flow cytometry. […]
(§7) β5 activity β2 activity β1 activity […]
(§8) Figure S3. Proteasomal Inhibitory Activities of TUS-007 and Degradation of KRAS by TUS-007, Related to Figure 3 […]
(§9) Degradation of mutant (G12D and G12V) and wild- type KRAS pr oteins by TUS- 007 was rescued by treatment with the proteasome inhibitor M LN2238 ([…]). […] KRAS G12D-HA-GFP and DsRed-expressing HeLa cells were co-treated with TUS-007 and 17-AAG (HSP90 inhibitor, 2 ∝M), or VER-155008 (HSP70 inhibitor , 2 ∝M) for 24 h and then analyzed by flow cytometry.
Target sequence in this assay (P01116 1-188 isoform P01116-2 G12D): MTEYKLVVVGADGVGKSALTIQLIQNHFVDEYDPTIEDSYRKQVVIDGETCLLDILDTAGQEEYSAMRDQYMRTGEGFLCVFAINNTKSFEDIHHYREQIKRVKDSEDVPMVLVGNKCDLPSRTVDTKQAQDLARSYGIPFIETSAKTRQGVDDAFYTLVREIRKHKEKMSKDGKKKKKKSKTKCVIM
In general terms: In flow cytometry, cells or beads pass a laser one at a time.

A further series has as its target T3, wild-type KRAS (Homo sapiens, UniProt P01116).
T3 construct: expressed in transfected cells; host or cells: HeLa cells
Description: Wild-type KRAS-HA-GFP degradation in HeLa cells. In kind it is cell-based. To be noted: exogenously expressed, flow cytometry and immunoblotting. The method, then:
as §6, §7, §8, §9

In the next series the target is T4, KRAS G12V (Homo sapiens, UniProt P01116, G12V).
T4 construct: expressed in transfected cells; host or cells: HeLa cells
Kind of series: KRAS G12V-HA-GFP degradation in HeLa cells. To be noted: exogenously expressed, flow cytometry and immunoblotting. The format is cell-based. The procedure: as §6, §7, §8, §9

Series [5] concerns the target KRAS G12D. Details: method as in PMID 22566140. To be noted: cited from earlier work.
The target of series [6] is β5/β2/β1 of the proteasome (Homo sapiens, UniProt P28072+P28074+Q99436). Description: Proteasomal inhibitory activity, stated in words for all subunits. The format is biochemical. To be noted: listed as TMP-CANDDY_MLN (1). The procedure: as §1, §2, §3, §4, §5
In series [7] the target is T1, ecDHFR. In kind it is cell-based.
Description: Cell extraction was treated with heat for 3 min and then analyzed via immunoblotting. […] The same procedure as in (E) was performed except for 24 h. […] The ratio of ecDHFR-HA-GFP/DsRed was detected via flow cytometry.
HeLa cells co-expressed ecDHF R- HA-GF P and DsRed from a bicistronic construct.
(C) HeLa cells co-expressed ecDHFR-HA-GFP and DsRed from a bicistronic construct. Target-expressing HeLa cells were
treated with a CANDDY molecule (1).

Square brackets hold non-standard residues; d marks the D form. Peptide text beside a SMILES is read from it. Nle = CCCC[C@H](N)C(=O)O Some results are limits rather than exact numbers.

The IC50 is the point on the concentration scale where inhibition reaches its midpoint. One may read the Kd as the free concentration of one partner at which half of the binding sites on the other are occupied at equilibrium, for simple one-to-one binding.

T1 sequence (P0ABQ4 whole entry): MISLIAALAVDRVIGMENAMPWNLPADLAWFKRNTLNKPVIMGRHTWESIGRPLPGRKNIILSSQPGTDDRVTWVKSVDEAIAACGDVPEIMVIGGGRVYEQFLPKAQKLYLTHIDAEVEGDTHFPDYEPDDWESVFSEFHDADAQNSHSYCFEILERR
T3 sequence (P01116 1-188 isoform P01116-2): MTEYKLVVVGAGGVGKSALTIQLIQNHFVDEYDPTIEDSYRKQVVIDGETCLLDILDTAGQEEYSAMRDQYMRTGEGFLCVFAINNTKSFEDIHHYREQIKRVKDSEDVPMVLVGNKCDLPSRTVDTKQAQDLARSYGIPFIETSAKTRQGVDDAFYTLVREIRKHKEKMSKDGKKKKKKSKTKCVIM
T4 sequence (P01116 1-188 isoform P01116-2 G12V): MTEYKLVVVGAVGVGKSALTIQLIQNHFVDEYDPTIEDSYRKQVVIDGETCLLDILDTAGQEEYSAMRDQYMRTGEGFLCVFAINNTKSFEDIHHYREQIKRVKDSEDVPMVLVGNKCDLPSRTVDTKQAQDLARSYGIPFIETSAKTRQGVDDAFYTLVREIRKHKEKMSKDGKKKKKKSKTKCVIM

In the case of `CCCC[C@H](NC(=O)[C@H](CC(C)C)NC(=O)[C@H](CC(C)C)NC(C)=O)C(=O)NCCCCCCNC(=O)COc1c(OC)cc(Cc2cnc(N)nc2N)cc1OC` [compound 2], the values for the IC50 at proteasome β5, at proteasome β2 and on proteasome β1 were 46.2 µM, greater than 160 µM and greater than 160 µM, respectively. Moreover, the “target affinity for ecDHFR compared with TMP (CETSA)” value on ecDHFR [1] was “more efficient”.

Regarding `CCCC[C@@H](C=O)NC(=O)[C@H](CC(C)C)NC(=O)[C@H](CC(C)C)NC(C)=O` [ALLN, reference compound] (Ac-Leu-Leu-[Nle]-aldehyde), the IC50 on proteasome β5 is 1 µM; on proteasome β2, 4.3 µM; on proteasome β1 it was 9.8 µM.

On to `CC(C)C[C@H](NC(=O)CNC(=O)c1cc(Cl)ccc1Cl)B(O)O` [MLN2238, reference compound], for which the IC50 on proteasome β2 stood at 8.9 µM; at proteasome β1, 0.029 µM.

For the compound `COc1cc(Cc2cnc(N)nc2N)cc(OC)c1OCC(=O)NCCCCCCNC(=O)[C@H](CC(C)C)NC(=O)[C@H](Cc1ccccc1)NC(=O)c1cnccn1` [compound 3], the IC50 at proteasome β5, at proteasome β2 and on proteasome β1 was greater than 160 µM each time. For the same compound, on ecDHFR [1], the “target affinity for ecDHFR compared with TMP (CETSA)” value is “lower”.

In the case of `CC[C@H](C)[C@H](NC(=O)CCCCCCN)C(=O)Nc1ccc2[nH]c(Cc3c[nH]c4ccccc34)nc2c1` [compound 5], the solubility entry in series [2] is recorded as “low solubility”. For the same compound, the “degradation of KRAS G12D in cell-free system” value on KRAS G12D [3] is given as “not”. Further, the “KRAS G12D degradation in HeLa cells” value at KRAS G12D [4] is “no degradation”. For the same compound, the “wild-type KRAS degradation in HeLa cells” value at wild-type KRAS is reported as “no degradation”. Also, the “KRAS G12V degradation in HeLa cells” value at KRAS G12V is listed as “no degradation”.

On to `CC[C@H](C)[C@H](N)C(=O)Nc1ccc2nc(Cc3c[nH]c4ccccc34)[nH]c2c1` [compound 4, reference compound], for which, in [2], the solubility entry is “low solubility”. Besides, the “degradation of KRAS G12D in cell-free system” value at KRAS G12D [3] was “not”. Also, the Kd at KRAS G12D [5] is 190 µM.

As to `COc1cc(Cc2cnc(N)nc2N)cc(OC)c1OCC(=O)NCCCCCCNC(=O)[C@H](CC(C)C)NC(=O)CNC(=O)c1cc(Cl)ccc1Cl` [compound 1], the IC50 at proteasome β5, on proteasome β2 and at proteasome β1 was greater than 160 µM throughout. Besides, the “target affinity for ecDHFR compared with TMP (CETSA)” value at ecDHFR [1] is reported as “more efficient”. For the same compound, the “proteasomal inhibitory activity (β5, β2, β1)” value in series [6] is listed as “almost no proteasomal inhibitory activity”. Further, the ecDHFR degradation entry at ecDHFR [7] (HeLa cells, 24 h, immunoblotting and flow cytometry (GFP/DsRed)) is listed as “highest target degradation efficiency”. Further, the “time dependence of ecDHFR degradation” value at ecDHFR [7] (HeLa cells, flow cytometry) is given as “time-dependent ecDHFR degradation”. At ecDHFR [7] (co-treatment with NAE inhibitor (E3) or PYR-41 (E1), flow cytometry), the “ecDHFR degradation on co-treatment with inhibitors of E1 or E3” value was “did not inhibit ecDHFR degradation”.

These data come from publication PMC10386196, “A First-Class Degrader Candidate Targeting Both KRAS G12D and G12V Mediated by CANDDY Technology Independent of Ubiquitination” (Molecules, 2023).
